Experimental data taken from patent publication US12673972B2, “Lung-specific targeting-peptide (LTP), compositions, and uses thereof” (University of Pittsburgh—Of the Commonwealth System of …, priority 2019, dated 2026).
Entries after “also recorded” stand apart in the source; their conditions may differ. No end group written: not given here. Cy5.5 = Cy5.5 fluorescent label

Legend:
H9C2 cells [1] = test: FACS uptake of Cy5.5-labeled alanine-scan peptides in H9C2 cells; type: cell-based, rat; conditions: 10 μM peptide, 30 minutes at 37° C., FACS gated on live cells
Method: An alanine scan of the cardiac targeting peptide (CTP, APWHLSSQYSRT, SEQ ID NO: 3) was performed, in which each amino acid was replaced sequentially with alanine, resulting in 11 different “alanine mutant” versions of CTP. Solid phase peptide synthesis of the alanine mutants of CTP fluorescently labeled with Cyanine 5.5 (Cy5.5) was conducted using standard fluorenylmethoxycarbonyl protecting group organic synthesis (FMOC) conditions on a Liberty CEM Microwave Peptide Synthesizer. Cleavage of the fully-protected CTP peptide fragment from the 2-chlorotrityl solid support was accomplished using 1% Trifluoroacetic acid (TFA)/methylene chloride (DCM), followed by elution of the peptide using TFA+scavengers, followed by isolation of the crude product by precipitation in Diethyl Ether (EtO2). Fluorescent dye labelling of the N-terminal amine was performed in solution using Cy5.5-NHS (Lumiprobe, Inc). The resulting crude cyclic CTP-Cy5.5 peptide was purified by preparative C-5 Reversed Phase High Performance Liquid Chromatography (RP-HPLC) on a Waters Delta Prep 4000 chromatography system, using standard Acetonitrile/0.1% TFA gradient conditions. Analytical C-5 RP-HPLC characterization on a Waters Alliance chromatography system followed by Matrix-Assisted Laser Desorption/Ionization Time-Of-Flight Mass Spectrometry (MALDI-TOF-MS) analysis on an Applied Biosystems Voyager workstation was used to confirm the expected mass and purity of the final product. For the purposes of nomenclature, the CTP mutants are identified by the original amino acid followed by its numbered position and A to indicate alanine at the substituted position, e.g., R11A indicates arginine at position 11 of CTP substituted with alanine (APWHLSSQYSAT, SEQ ID NO: 2). CTP was also synthesized as a 6-amino acid N-terminal peptide (CTP-A, APWHLS, SEQ ID NO: 4), and as a 6-amino acid C-terminal peptide (CTP-B, SQYSRT, SEQ ID NO: 5).
For in vitro testing, a rat cardiomyoblast cell line, H9C2 was incubated with each of the alanine-scan peptides, including parental peptide CTP and variants CTP-A and CTP-B; each condition was run in triplicate. For the incubation, peptides were received as lyophilized powders and made into 10 mM stock solutions in DMSO. The stock solution was diluted in culture medium to a final concentration of 10 μM for each peptide, and incubated for 30 minutes at 37° C. with H9C2 cells. Following the incubation period, cells were washed extensively with PBS, trypsinized and fluorescence activated cell sorting (FACS) was performed in biological triplicates. […] There was almost a 3-4 fold increase in median fluorescence intensities compared with CTP for S7A peptide and R11A peptide (FIG. 1).

CD1 mice = test: In vivo biodistribution of fluorescently labeled peptides in mice (IVIS ex vivo organ imaging, confocal microscopy); conditions: for cardiac uptake / uptake in lung epithelial tissue: 10 mg/kg intravenously, 15 minutes circulation, CD1 mice; for uptake in lung epithelial tissue: confocal and IVIS; for greater lung than liver uptake (lung-to-liver ratio of fluorescent intensity) / lung transduction at lower doses: S7A 5 mg/kg, R11A 5 and 1 mg/kg, 15 minutes, ex vivo IVIS; for lung transduction at lower doses: even at the lowest injected dose
Method: CTP-B, CTP-P2A, CTP-S7A, CTP-R11A and a random negative control peptide (RAN), were further tested in vivo in mice, in triplicate. Wild-type, 6-week old, male and female CD1 mice were weighed and anesthetized. Mice were injected intravenously with the various peptides, each at a dose of 10 mg/kg. Peptides circulated for 15 minutes, after which mice were euthanized and fixed with 3 ml of 10% formalin injected through the left ventricular apex. Multiple organs (heart, lungs, liver, kidney, spleen, brain, large intestines, small intestines, testes/ovaries, and eyeball) were harvested, placed in a 12-well plate, and immediately imaged using a Perkin-Elmer IVIS imaging system using the relevant excitation-emission laser/detector wavelengths. After the imaging was complete, organs were placed in 10% formalin at room temperature. Following overnight fixation in formalin, organs were transferred to 30% sucrose at 4° C. Following overnight incubation in sucrose, all organs were embedded and frozen in optical cutting medium, 10 μm thick sections were cut, mounted with DAPI, and cover-slipped. Slides were imaged using confocal fluorescent microscopy using the same parameters for imaging between mice, peptides and organs, to allow for comparison and quantification of fluorescence intensities in the relevant regions of interest.
Injections were repeated in a total of 9 CD1 mice with identical lung uptake; all images were acquired with the same confocal microscope parameters to allow for cross-animal comparison; however, at the same laser intensity, the lung sample was saturated. […] Wild-type mice were injected with Cy5.5 labeled R11A at a dose of 10 mg/kg, and euthanized mice after 15 minutes; multiple organs were then harvested for imaging.
Wild-type CD1 mice were then injected with lower doses of fluorescently labeled S7A peptide (5 mg/kg) or R11A peptide (5 and 1 mg/kg). The peptides were allowed to circulate for 15 minutes, mice were sacrificed, multiple organs were harvested, and ex vivo IVIS imaging was performed. Ex vivo imaging of organs harvested from mice without injected peptides was performed in order to subtract background auto-fluorescent signal from the test organs. IVIS imaging of multiple organs was conducted after administering decreasing doses of peptide from 5 to 1 mg/kg. […] Quantification of IVIS imaging for total fluorescent intensity for heart, lung, liver, kidney, spleen, and brain is shown in FIG. 4. Using the fluorescent intensity values, Lung-to-Liver ratios for both peptides were calculated at the tested doses.

[2] = test system: human bronchial epithelial cells from patients with CF; test: Uptake at 4° C with fluorescently labeled transferrin (Tf-488) in human bronchial epithelial cells from patients with CF; type: cell-based; conditions: for uptake relative to random peptide: 10 μM, 1 hour on ice at 4° C. then 37° C., times 0, 5 and 30 minutes; for energy dependence of internalization: occurred even at 4° C.
Method: To further characterize uptake of S7A peptide and R11A peptide in cells of interest, human bronchial epithelial cells from patients with CF were grown on cover-slips. Cells were starved at 37° C. for 1 hour in minimal media (MEM media+0.5% Bovine Serum Albumin (BS)+25 mM Hepes buffer at pH 7.4), washed with cold PBS, incubated on ice at 4° C. with fluorescently labeled transferrin (Tf-488) and 10 μM of test peptide (Random, S7A peptide, or R11A peptide) for 1 hour before being shifted to a 37° C. water-bath. Cover-slips were fixed at times 0, 5 and 30 minutes, with random peptide samples fixed only at 0 and 30 minutes.

[3] = test system: human bronchial epithelial cells from patients with Cystic Fibrosis (CF); test: Confocal uptake in human bronchial epithelial cells from patients with Cystic Fibrosis; type: cell-based; conditions: for uptake by confocal microscopy: 10 μM, 0, 2, 10 or 30 minutes at 37° C./5% CO2, FIG. 6A; for quantification of fluorescence intensity (uptake): FIG. 6B
Method: Cells were grown on coverslips, incubated with 10 μM of S7A peptide, R11A peptide, or a random, negative control peptide, for 0, 2, 10, or 30 minutes at 37° C./5% CO2. Following incubation, cells were washed with prewarmed PBS, cross-stained with DAPI, fixed, and mounted on slides for confocal microscopy. […] In the time 0 and 2 minute timepoints, only the DAPI nuclear stain is visible, with cytoplasmic staining for the LTPs growing visible at 10 minutes and dominating the field of view at 30 minutes.

H9C2 cells [4] = test: Confocal microscopy of H9C2 cells transduced with linear or cyclic CTP; type: cell-based, rat; conditions: for Mean (fluorescence) / Subtraction (mean minus background fluorescence): transduced H9C2 cells, confocal quantification
From the text: The cardiac targeting peptide (CTP, SEQ ID NO: 3) was cyclized by establishing a chemical bond between the amino and carboxyl termini (between the alpha-amino group of N-terminal Lysine and the C-terminus of the peptide sequence), and subsequently labelled with a Cy5.5 fluorescent label at the epsilon amino group of the N-terminal lysine.
The cyclic form of CTP was then compared to the linear form of CTP using confocal microscopy of transduced H9C2 cells, using the protocol as described in Example 1 above. […] Quantification of the fluorescence intensity, as shown in FIG. 10B and Table 2, confirmed the enhanced fluorescent activity.

Substance	uptake of the fluorescently labeled peptide into H9C2 cells as compared to full-length, parental CTP (H9C2 cells [1])	cardiac uptake (CD1 mice)	uptake relative to random peptide [2]	energy dependence of internalization [2]	uptake by confocal microscopy [3]	quantification of fluorescence intensity (uptake) ([3]; 10 μM)	uptake and fluorescence intensity compared between test peptides ([3]; 10 μM, confocal microscopy, FIG. 6A)	uptake in lung epithelial tissue (CD1 mice)	greater lung than liver uptake (lung-to-liver ratio of fluorescent intensity) (CD1 mice)	lung transduction at lower doses (CD1 mice)	Mean (fluorescence) (H9C2 cells [4])	Subtraction (mean minus background fluorescence) (H9C2 cells [4])	uptake of cyclic format relative to linear format (H9C2 cells [4]; confocal imaging, FIG. 10A)
AAWHLSSQYSRT [CTP-P2A]	statistically significantly higher uptake	results similar to what was predicted from in vitro H9C2 transduction											
APWHLSAQYSRT (also: Cy5.5 label, place not given here) [S7A, Lung-specific targeting peptide, alanine mutant of CTP; tested Cy5.5-labeled]	statistically significantly higher uptake	did not show significant cardiac uptake; also recorded: without significant cardiac uptake	robust uptake	not energy-dependent	robust uptake	significantly high uptake	higher uptake and fluorescence intensity even than R11A peptide	robust uptake	approximately 2.5 fold	Robust lung transduction			
APWHLSSQYSRT [Linear CTP, cardiac targeting peptide described in WO2019226785A1, parental peptide, reference compound]											362.478	134.777	
KAPWHLSSQYSRT (cyclo(K(Cy5.5)APWHLSSQYSRT)) [Cyclic CTP, CTP cyclized via N-terminal lysine alpha-amino group to C-terminus, Cy5.5 at lysine epsilon amino group]											521.590	371.123	enhanced uptake relative to the linear format
SQYSRT [CTP-B, 6-amino acid C-terminal peptide of CTP]	statistically significantly higher uptake	results similar to what was predicted from in vitro H9C2 transduction											
APWHLSSQYSAT (also: Cy5.5 label, place not given here) [R11A, Lung-specific targeting peptide, alanine mutant of CTP; tested Cy5.5-labeled]	statistically significantly higher uptake	did not show significant cardiac uptake; also recorded: without significant cardiac uptake	robust uptake	not energy-dependent	robust uptake	significantly high uptake		Robust lung uptake	8-9 fold	Robust lung transduction			
